Measurements as given in ChEMBL document CHEMBL5550216, “Discovery of Triazolopyrimidine Derivatives as Selective P2X3 Receptor Antagonists Binding to an Unprecedented Allosteric Site as Evidenced by Cryo-Electron Microscopy” (J Med Chem, 2024).

Key:
[1] = Metabolic stability in rat liver microsomes assessed as compound remaining at 100 uM preincubated for 10 mins followed by NADPH addition and measured after 30 mins by LC-MS/MS analysis; format: ADME, Microsome; settings: time 40 min, read-out: Stability
[2] = Metabolic stability in mouse liver microsomes assessed as compound remaining at 100 uM preincubated for 10 mins followed by NADPH addition and measured after 30 mins by LC-MS/MS analysis; format: ADME, Microsome; settings: time 40 min, read-out: Stability
[3] = Metabolic stability in human liver microsomes assessed as compound remaining at 100 uM preincubated for 10 mins followed by NADPH addition and measured after 30 mins by LC-MS/MS analysis; format: ADME, Microsome; settings: time 40 min, read-out: Stability
P2X purinoceptor 7 = target: T1, P2X purinoceptor 7 (Homo sapiens, UniProt Q99572); assay: Antagonist activity at human P2X7 receptor expressed in 1321N1 cells incubated for 30 mins in presence of Bz-ATP by Fluo-4 dye based microplate reader assay; format: cell-based
T1 sequence (Q99572 whole entry): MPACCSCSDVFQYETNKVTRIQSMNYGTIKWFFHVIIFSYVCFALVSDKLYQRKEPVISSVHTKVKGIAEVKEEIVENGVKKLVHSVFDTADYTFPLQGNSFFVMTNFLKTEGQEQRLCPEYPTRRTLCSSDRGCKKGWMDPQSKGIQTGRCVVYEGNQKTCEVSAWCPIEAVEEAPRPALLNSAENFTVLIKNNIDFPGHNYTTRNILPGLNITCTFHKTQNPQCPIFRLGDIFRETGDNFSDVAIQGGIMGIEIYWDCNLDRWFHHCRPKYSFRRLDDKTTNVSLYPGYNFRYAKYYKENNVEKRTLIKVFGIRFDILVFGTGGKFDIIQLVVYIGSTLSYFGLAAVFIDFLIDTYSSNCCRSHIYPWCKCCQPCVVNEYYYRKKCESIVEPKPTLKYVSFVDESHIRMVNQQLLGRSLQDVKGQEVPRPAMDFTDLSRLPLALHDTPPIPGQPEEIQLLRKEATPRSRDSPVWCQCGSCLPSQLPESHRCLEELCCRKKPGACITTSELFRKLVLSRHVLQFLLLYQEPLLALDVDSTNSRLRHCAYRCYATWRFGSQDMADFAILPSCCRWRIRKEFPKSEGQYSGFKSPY

P2X purinoceptor 1 = target: T2, P2X purinoceptor 1 (Homo sapiens, UniProt P51575); assay: Antagonist activity at human P2X1 receptor expressed in 1321N1 cells incubated for 30 mins in presence of ATP by Fluo-4 dye based microplate reader assay; format: cell-based
T2 sequence (P51575 whole entry): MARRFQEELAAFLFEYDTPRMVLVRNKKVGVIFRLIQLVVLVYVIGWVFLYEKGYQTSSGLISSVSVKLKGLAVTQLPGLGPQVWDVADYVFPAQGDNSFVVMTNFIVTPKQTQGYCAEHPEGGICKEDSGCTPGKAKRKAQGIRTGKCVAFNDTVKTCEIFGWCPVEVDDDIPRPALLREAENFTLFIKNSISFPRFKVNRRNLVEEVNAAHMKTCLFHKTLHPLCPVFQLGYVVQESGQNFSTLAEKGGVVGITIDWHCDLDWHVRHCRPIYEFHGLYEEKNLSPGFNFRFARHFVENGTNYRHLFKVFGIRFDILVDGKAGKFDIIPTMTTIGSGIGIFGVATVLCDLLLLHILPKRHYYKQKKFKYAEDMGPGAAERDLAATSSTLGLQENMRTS

P2X purinoceptor 4 = target: T3, P2X purinoceptor 4 (Homo sapiens, UniProt Q99571); assay: Antagonist activity at human P2X4 receptor expressed in 1321N1 cells incubated for 30 mins in presence of ATP by Fluo-4 dye based microplate reader assay; format: cell-based
T3 sequence (Q99571 whole entry): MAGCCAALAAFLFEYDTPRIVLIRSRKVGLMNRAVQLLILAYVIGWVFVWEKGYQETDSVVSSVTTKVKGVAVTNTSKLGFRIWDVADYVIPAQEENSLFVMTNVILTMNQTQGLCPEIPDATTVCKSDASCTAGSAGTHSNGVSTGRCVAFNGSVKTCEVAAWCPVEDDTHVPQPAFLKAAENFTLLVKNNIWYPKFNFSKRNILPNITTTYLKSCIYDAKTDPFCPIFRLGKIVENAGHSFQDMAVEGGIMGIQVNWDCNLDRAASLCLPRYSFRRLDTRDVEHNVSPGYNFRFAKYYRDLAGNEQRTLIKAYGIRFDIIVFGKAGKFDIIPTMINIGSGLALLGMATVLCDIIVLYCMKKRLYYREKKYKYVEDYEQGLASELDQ

[4] = Permeability of compound at 10 uM incubated for 4 hrs by PAMPA; format: ADME; settings: read-out: permeability
P2X purinoceptor 3 = target: T4, P2X purinoceptor 3 (Homo sapiens, UniProt P56373); assay: Antagonist activity at human P2X3R expressed in HEK293 cells incubated for 18 hrs by Fluo-4 dye based microplate reader assay
T4 sequence (P56373 whole entry): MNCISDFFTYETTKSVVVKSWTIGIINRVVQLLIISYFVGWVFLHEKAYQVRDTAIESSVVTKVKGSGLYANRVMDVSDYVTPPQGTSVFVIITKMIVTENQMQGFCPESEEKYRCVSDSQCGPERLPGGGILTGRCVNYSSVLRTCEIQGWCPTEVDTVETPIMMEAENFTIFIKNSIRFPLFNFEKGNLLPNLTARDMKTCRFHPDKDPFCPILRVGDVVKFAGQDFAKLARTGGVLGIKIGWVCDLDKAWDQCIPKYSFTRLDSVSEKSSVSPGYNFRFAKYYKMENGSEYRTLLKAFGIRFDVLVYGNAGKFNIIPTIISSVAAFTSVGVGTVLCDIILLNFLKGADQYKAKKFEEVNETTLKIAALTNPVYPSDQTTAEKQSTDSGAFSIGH

[5] = target: T5, P2X2/P2X3 heterotrimeric receptor (Homo sapiens, UniProt P56373+Q9UBL9); assay: Antagonist activity at human P2X2/3 receptor expressed in HEK293 cells preincubated for 30 mins followed by alpha, beta me-ATP addition and measured for 10 mins by Fluo-8 dye based FLIPR assay
T5 sequence (Q9UBL9 whole entry): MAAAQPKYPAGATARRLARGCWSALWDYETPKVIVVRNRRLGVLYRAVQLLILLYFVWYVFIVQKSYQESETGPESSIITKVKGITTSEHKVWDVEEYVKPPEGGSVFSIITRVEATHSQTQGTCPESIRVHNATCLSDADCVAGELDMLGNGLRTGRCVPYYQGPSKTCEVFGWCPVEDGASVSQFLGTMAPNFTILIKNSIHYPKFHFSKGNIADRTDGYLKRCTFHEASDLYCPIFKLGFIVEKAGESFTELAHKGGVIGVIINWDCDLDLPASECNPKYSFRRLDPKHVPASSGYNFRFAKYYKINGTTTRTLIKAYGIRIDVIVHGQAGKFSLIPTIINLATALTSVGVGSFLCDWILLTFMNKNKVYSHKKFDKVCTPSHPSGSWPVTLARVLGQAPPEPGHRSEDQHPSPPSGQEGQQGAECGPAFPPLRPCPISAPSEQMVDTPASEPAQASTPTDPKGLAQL
T5 sequence (P56373 whole entry): T4 sequence (P56373 whole entry)

[6] = target: T5, P2X2/P2X3 heterotrimeric receptor; assay: Antagonist activity at human P2X2/3R expressed in HEK293 cells incubated for 18 hrs by Fluo-4 dye based microplate reader assay

CC(=O)N1CCN(c2cc(N[C@H](C)c3ccc4ccccc4c3)n3nc(C4CCCC4)nc3n2)CC1
remaining at 0.5 h, 100 µM [1]: 4.2% | remaining at 0.5 h, 100 µM [2]: 15.2% | remaining at 0.5 h, 100 µM [3]: 33.2%

CC(=O)N1CCN(c2cc(N[C@H](C)c3ccc4ccccc4c3)n3nc(C4CCC4)nc3n2)CC1
remaining at 0.5 h, 100 µM [1]: 0.2% | remaining at 0.5 h, 100 µM [2]: 18% | remaining at 0.5 h, 100 µM [3]: 28.3%

C[C@@H](Nc1cc(N2CCN(C(N)=O)CC2)nc2nc(C3CC3)nn12)c1ccc2ccccc2c1
remaining at 0.5 h, 100 µM [1]: 0.3% | IC50 (P2X purinoceptor 7): > 10 µM | IC50 (P2X purinoceptor 1): 4.28 µM | remaining at 0.5 h, 100 µM [2]: 50.6% | IC50 (P2X purinoceptor 4): > 10 µM | Papp at 4 h, 10 µM [4]: < 0.0185 ×10⁻⁶ cm/s | remaining at 0.5 h, 100 µM [3]: 50.2%

CNC(=O)c1cc(F)c(-c2nc3cc(C)ccn3c2CC2CCCN(C(=O)OC)C2)c(F)c1 (single isomer, unassigned)
IC50 (P2X purinoceptor 3): 0.0155 µM | IC50 [5]: > 24 µM | IC50 [6]: 5.06 µM

NC(=O)N1c2ccccc2C=Cc2ccccc21 [CARBAMAZEPINE]
Papp at 4 h, 10 µM [4]: 5.41 ×10⁻⁶ cm/s

CC(C)(C)NCC(O)COc1cccc2c1CC(O)C(O)C2 (stereo not drawn) [NADOLOL]
Papp at 4 h, 10 µM [4]: < 0.0185 ×10⁻⁶ cm/s
